Measured values taken from PMC5858925, “Mechanochemical coupling and bi-phasic force-velocity dependence in the ultra-fast ring ATPase SpoIIIE” (eLife, 2018).

Target: T1, SpoIIIE (Bacillus subtilis, UniProt P21458)
T1 construct: recombinant SpoIIIE, homo-hexamer, immobilized on polystyrene beads
Test: optical tweezers, pause-free DNA translocation velocity vs [ATP], Michaelis-Menten fit
Type: biochemical
Conditions: 0.25-5 mM ATP; 5 pN opposing force; dsDNA track; 5 µM ADP and 5 µM Pi

T1 sequence (P21458 whole entry): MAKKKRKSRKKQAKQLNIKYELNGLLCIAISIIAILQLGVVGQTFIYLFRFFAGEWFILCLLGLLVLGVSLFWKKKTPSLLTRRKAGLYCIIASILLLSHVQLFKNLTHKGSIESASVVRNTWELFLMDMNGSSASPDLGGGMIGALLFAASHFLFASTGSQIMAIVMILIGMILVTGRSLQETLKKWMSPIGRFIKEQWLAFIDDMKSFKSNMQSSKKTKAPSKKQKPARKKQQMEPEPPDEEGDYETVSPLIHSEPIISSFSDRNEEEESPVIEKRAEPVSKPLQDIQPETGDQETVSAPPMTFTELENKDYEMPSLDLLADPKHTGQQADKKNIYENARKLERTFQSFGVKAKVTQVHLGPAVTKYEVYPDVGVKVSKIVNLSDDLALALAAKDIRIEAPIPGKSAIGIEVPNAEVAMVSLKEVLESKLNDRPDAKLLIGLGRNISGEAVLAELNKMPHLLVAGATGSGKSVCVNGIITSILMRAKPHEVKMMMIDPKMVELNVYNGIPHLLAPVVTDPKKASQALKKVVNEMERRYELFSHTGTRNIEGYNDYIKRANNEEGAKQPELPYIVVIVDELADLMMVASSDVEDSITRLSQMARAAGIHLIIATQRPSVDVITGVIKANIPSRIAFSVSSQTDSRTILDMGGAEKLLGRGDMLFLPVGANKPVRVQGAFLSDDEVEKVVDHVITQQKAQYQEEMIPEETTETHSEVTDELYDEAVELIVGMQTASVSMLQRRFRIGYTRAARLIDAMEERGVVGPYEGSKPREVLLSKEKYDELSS

With Nc1ncnc2c1ncn2[C@@H]1O[C@H](COP(=O)(O)OP(=O)(O)OP(=O)(O)O)[C@@H](O)[C@H]1O [ATP] the KM was “Although both Vmax and KM decrease with force, Vmax/KM is largely force-independent”.
